# Assay results as given in ChEMBL document CHEMBL1201862, “PubChem BioAssay data set” (2004).
# The source made the active and inactive calls.
# Assays:
# [1] = target: Glucose-6-phosphate 1-dehydrogenase (Homo sapiens, UniProt P11413); test: human G6PD enzyme inhibitors, dose response, selectivity assay for P. falciparum G6PD inhibitor project, biochemical, fluorescence (AID 504792); format: functional
# HeLa = test: HeLa cell cytotoxicity, dose response, cytotoxicity control for MITF activator project, CellTiter-Glo luminescence, cherry-pick samples (AID 540259); format: functional, cell-based; conditions: Homo sapiens
# Protein skinhead-1 = target: T1, Protein skinhead-1 (Caenorhabditis elegans, UniProt P34707); format: functional
# T1 sequence (P34707 whole entry): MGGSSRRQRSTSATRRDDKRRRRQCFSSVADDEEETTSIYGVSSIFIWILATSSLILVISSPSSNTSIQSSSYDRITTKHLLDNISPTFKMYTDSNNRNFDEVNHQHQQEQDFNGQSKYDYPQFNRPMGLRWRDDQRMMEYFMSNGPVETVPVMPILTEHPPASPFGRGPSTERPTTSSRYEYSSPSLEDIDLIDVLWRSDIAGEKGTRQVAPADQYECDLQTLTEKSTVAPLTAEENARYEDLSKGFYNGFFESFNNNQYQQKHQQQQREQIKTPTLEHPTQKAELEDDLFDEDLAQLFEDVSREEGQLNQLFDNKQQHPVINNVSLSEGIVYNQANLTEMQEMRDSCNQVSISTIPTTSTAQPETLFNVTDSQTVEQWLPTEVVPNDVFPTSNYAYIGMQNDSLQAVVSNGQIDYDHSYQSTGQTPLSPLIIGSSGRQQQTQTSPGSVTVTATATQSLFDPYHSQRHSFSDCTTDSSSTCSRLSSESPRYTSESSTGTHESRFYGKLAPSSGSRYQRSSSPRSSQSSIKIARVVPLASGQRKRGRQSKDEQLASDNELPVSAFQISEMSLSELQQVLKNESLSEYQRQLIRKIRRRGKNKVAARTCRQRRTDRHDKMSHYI
# [2] = target: T2, Polyadenylate-binding protein 1 (Homo sapiens, UniProt P11940); test: PABP1 MLLE–PAM2 interaction inhibitors, dose response, miRNA deadenylation inhibitor project, biochemical, fluorescence polarization, Cy5-PAM2 peptide, secondary (AID 602260); format: functional; conditions: read-out: IC50_Mean
# [3] = target: T2, Polyadenylate-binding protein 1; test: PABP1 MLLE–PAM2 binding inhibitor potency, dose response, biochemical, fluorescence polarization, FITC-PAM2 peptide (AID 602259); format: functional; conditions: read-out: IC50_Mean
# [4] = target: T3, Rac GTPase-activating protein 1 (Homo sapiens, UniProt Q9H0H5); test: MgcRacGAP GTPase-activating activity inhibitors, confirmation, biochemical, ADP Hunter fluorescence, primary and confirmatory (AID 624330); format: functional
# T3 sequence (Q9H0H5 whole entry): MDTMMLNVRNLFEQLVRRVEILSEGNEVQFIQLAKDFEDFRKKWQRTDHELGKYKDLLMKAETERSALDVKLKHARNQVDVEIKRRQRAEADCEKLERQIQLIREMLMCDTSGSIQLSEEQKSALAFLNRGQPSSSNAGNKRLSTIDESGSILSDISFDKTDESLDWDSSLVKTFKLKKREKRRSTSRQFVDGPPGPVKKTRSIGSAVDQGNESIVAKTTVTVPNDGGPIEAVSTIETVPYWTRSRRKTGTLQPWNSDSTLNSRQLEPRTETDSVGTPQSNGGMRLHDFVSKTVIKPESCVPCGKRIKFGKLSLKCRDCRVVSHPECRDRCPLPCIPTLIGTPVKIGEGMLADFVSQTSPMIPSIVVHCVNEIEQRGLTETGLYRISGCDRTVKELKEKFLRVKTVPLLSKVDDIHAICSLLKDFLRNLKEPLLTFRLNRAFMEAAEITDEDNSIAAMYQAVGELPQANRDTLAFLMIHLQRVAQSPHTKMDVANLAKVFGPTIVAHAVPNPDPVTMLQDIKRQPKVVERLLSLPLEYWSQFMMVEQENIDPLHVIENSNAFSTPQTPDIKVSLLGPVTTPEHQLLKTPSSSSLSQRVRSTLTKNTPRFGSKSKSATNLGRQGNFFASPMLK
# INS1 = test: beta cell apoptosis inhibitors, cytokine rescue, dose response, luminescence, retest (AID 449756); format: functional, cell-based; conditions: Rattus norvegicus;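 also: cell death triggered by IL-1 beta plus TNF-alpha plus IFN-gamma mixture; protective hits raise ATP signal compared with cytokine alone wells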
# [5] = target: T4, Apoptotic protease-activating factor 1 (Homo sapiens, UniProt O14727); format: functional
# T4 sequence (O14727 whole entry): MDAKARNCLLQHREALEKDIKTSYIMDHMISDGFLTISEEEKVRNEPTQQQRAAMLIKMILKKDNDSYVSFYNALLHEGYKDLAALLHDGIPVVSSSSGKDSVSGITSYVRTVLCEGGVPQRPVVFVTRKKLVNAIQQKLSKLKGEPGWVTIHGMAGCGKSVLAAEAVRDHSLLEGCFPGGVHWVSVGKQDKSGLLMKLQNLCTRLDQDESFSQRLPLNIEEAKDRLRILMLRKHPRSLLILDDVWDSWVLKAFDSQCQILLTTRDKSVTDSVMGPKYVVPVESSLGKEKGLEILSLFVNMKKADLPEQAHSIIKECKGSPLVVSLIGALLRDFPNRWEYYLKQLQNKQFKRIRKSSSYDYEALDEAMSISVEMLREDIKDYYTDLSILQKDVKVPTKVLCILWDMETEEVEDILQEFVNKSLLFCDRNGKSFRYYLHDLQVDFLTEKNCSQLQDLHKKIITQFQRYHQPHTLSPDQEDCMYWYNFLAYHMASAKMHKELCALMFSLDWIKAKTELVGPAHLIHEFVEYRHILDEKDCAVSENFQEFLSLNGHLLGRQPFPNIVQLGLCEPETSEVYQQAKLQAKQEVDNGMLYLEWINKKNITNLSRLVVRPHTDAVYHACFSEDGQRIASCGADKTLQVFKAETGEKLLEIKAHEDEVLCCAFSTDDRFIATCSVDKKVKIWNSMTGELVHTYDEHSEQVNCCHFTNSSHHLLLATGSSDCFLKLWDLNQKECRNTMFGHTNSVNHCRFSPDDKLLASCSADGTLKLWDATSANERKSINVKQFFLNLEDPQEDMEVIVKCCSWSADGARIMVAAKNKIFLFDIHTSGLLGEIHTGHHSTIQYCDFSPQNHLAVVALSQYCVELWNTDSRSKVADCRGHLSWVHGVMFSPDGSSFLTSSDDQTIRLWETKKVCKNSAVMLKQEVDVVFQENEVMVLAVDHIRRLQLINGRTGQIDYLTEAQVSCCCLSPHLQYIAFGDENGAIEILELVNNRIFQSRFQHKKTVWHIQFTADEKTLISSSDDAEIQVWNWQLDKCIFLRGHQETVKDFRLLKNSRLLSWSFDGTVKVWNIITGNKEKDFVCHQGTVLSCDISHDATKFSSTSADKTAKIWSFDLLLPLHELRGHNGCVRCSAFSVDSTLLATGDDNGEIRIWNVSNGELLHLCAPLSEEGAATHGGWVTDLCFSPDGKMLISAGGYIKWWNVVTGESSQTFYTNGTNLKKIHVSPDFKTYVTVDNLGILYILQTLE
# [6] = target: Adenosylmethionine-8-amino-7-oxononanoate aminotransferase (Mycobacterium tuberculosis, UniProt P9WQ81); test: Mycobacterium tuberculosis BioA enzyme inhibitor Measured in Biochemical System Using Plate Reader - 2163-02_Inhibitor_Dose_CherryPick_Activity.; format: functional, Mycobacterium tuberculosis UT205
# [7] = target: Beta-2 adrenergic receptor (Homo sapiens, UniProt P07550); test: beta2AR agonists driving receptor internalization, dose response, cell-based, FAP fluorogen, flow cytometry, cherry pick 1 (AID 588763); format: functional
# BJ [8] = test: cytotoxicity toward BJ-TERT fibroblasts, dose response, cell-based, RAS-independent, luminescence (AID 1933); format: functional; conditions: Homo sapiens
# BJ [9] = test: cytotoxicity toward Ras-transformed BJeLR fibroblasts, dose response, cell-based, alamar blue fluorescence, cherrypicked samples (AID 2631); format: functional; conditions: Homo sapiens;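 also: confirmatory dose-response assay in RAS-dependent BJ fibroblasts engineered with TERT, LT and ST, with cytotoxicity read by fluorescence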
# [10] = Luminescence Cell-Based Dose Retest to Confirm Inhibitors of Cancer Stem Cells. [Related pubchem assays (depositor defined):AID2717, AID2721]; format: functional; conditions: Homo sapiens
# BJ [11] = test: cells; format: functional, cell-based; conditions: Homo sapiens
# [12] = cytotoxicity toward DRD oncogenic fibroblasts, dose response, cell-based, non-viral oncogenic, luminescence (AID 1934); format: functional; conditions: Homo sapiens
# BJ [13] = test: cytotoxicity toward BJ-TERT-LT-ST fibroblasts, dose response, cell-based, RAS-independent, luminescence (AID 1935); format: functional; conditions: Homo sapiens;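 also: BJ fibroblasts immortalized with TERT plus LT and ST oncogenes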
# fMet-Leu-Phe receptor = target: T5, fMet-Leu-Phe receptor (Homo sapiens, UniProt P21462); test: FPR ligands, dose response (AID 519); format: functional
# T5 sequence (P21462 whole entry): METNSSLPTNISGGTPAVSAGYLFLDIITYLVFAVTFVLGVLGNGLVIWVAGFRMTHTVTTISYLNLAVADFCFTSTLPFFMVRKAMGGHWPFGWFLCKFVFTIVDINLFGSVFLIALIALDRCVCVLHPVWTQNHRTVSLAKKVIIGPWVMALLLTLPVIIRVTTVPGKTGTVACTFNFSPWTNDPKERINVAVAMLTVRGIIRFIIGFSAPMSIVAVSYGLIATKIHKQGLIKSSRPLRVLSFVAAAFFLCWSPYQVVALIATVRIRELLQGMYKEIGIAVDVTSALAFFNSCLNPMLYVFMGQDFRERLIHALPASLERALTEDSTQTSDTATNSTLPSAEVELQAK
# Cytochrome P450 2D6 = Cytochrome P450 2D6 (Homo sapiens, UniProt P10635);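 also: CYP2D6 member of a cytochrome P450 panel assay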
# Cytochrome P450 2C19 = Cytochrome P450 2C19 (Homo sapiens, UniProt P33261); test: Cytochrome panel assay with activity outcomes. Panel member name: p450-cyp2c19 Compounds with AC50 equal or less than 10 uM are considered active; format: functional; conditions: read-out: AC50
# [14] = target: T6, Tyrosine-protein kinase JAK3 (Homo sapiens, UniProt P52333); format: functional
# T6 sequence (P52333 whole entry): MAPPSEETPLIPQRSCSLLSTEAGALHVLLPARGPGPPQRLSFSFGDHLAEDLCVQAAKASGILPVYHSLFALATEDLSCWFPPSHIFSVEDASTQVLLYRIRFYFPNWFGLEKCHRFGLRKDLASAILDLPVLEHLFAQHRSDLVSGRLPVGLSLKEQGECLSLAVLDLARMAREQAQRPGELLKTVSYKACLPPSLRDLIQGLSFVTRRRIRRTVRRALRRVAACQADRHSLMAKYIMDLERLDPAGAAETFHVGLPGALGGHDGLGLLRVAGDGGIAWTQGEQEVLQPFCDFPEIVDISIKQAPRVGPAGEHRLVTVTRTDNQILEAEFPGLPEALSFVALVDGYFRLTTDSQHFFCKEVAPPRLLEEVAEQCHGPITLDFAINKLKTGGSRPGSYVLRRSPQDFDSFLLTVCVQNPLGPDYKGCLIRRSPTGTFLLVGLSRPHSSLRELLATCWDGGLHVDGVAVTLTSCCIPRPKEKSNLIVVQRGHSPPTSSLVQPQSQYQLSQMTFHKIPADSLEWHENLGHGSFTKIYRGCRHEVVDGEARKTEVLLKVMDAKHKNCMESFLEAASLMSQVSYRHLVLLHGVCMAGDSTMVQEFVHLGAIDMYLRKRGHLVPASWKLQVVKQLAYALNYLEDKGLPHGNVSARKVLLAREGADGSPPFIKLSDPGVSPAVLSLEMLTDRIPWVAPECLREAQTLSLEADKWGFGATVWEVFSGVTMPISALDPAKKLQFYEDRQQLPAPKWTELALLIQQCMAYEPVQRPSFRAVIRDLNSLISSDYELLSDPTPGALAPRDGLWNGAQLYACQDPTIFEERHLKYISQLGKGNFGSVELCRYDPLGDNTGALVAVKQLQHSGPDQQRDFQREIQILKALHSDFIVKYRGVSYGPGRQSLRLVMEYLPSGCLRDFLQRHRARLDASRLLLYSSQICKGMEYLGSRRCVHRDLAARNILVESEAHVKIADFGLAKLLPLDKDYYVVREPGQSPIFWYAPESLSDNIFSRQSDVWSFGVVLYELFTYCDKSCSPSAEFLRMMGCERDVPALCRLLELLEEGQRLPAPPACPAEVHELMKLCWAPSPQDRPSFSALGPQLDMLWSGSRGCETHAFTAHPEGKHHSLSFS
# [15] = target: T7, Testis-specific serine/threonine-protein kinase 2 (Homo sapiens, UniProt Q96PF2); format: functional;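 also: part of the Navigating the Kinome panel, target entry STK22B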
# T7 sequence (Q96PF2 whole entry): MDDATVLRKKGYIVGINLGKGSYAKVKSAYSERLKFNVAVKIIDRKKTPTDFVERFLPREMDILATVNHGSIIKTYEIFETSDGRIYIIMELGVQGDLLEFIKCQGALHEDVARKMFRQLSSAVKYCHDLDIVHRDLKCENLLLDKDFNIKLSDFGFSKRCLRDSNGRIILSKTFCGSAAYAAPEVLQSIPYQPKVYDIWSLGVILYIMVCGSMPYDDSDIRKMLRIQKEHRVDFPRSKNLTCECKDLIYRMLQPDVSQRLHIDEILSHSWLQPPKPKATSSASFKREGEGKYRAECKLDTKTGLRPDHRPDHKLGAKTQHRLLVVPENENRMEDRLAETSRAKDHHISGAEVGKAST
# Beta-2 adrenergic receptor, sequence (P07550 whole entry): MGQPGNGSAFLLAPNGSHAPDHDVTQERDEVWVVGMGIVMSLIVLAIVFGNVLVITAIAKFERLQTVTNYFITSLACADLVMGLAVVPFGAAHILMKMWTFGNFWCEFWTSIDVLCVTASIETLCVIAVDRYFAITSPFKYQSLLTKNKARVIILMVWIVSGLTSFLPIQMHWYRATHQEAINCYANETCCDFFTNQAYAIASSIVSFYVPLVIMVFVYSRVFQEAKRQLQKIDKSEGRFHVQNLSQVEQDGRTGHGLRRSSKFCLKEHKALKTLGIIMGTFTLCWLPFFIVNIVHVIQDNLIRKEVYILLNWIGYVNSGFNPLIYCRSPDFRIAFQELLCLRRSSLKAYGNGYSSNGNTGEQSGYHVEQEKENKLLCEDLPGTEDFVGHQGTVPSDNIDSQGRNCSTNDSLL
# Glucose-6-phosphate 1-dehydrogenase, sequence (P11413 whole entry): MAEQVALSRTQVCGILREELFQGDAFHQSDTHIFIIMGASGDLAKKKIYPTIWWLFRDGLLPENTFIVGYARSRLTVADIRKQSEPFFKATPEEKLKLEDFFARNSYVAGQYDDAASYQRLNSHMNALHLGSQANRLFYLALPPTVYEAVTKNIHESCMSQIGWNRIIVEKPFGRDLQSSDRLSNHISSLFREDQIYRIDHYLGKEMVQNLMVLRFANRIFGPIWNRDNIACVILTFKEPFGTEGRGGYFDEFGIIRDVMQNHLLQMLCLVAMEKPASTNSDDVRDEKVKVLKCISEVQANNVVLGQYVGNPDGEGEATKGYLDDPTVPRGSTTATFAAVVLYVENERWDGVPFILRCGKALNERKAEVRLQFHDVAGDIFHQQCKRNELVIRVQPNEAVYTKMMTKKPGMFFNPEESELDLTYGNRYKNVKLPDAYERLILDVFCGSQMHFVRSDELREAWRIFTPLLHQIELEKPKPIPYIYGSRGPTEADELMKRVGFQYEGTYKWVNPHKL
# Adenosylmethionine-8-amino-7-oxononanoate aminotransferase, sequence (P9WQ81 whole entry): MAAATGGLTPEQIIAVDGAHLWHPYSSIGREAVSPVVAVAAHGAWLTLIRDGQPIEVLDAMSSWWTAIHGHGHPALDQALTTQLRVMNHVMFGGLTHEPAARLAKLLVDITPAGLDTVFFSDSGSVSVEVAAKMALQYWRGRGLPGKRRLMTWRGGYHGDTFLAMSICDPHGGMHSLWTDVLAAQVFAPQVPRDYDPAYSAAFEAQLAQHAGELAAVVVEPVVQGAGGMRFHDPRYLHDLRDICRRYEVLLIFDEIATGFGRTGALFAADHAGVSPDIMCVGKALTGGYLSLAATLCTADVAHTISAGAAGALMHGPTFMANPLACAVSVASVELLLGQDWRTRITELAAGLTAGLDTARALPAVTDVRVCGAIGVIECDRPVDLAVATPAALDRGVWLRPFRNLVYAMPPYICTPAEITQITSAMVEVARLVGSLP
# T2 sequence (P11940 whole entry): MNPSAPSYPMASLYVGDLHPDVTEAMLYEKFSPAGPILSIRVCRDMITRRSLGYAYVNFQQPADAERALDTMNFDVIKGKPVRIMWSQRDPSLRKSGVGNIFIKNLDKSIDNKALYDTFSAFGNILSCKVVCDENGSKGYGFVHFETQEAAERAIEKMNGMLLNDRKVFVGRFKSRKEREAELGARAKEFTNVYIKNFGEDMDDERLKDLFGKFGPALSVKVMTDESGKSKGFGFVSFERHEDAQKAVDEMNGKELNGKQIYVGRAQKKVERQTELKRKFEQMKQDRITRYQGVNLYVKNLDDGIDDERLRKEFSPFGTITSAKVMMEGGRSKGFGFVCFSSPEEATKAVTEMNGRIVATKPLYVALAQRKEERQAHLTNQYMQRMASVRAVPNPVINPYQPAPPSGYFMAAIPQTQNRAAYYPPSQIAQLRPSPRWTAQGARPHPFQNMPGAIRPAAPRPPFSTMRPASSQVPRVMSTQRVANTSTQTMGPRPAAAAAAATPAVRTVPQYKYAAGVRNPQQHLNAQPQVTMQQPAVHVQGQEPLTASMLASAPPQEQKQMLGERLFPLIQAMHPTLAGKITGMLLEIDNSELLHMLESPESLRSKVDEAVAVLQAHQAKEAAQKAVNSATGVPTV
# Cytochrome P450 2C19, sequence (P33261 whole entry): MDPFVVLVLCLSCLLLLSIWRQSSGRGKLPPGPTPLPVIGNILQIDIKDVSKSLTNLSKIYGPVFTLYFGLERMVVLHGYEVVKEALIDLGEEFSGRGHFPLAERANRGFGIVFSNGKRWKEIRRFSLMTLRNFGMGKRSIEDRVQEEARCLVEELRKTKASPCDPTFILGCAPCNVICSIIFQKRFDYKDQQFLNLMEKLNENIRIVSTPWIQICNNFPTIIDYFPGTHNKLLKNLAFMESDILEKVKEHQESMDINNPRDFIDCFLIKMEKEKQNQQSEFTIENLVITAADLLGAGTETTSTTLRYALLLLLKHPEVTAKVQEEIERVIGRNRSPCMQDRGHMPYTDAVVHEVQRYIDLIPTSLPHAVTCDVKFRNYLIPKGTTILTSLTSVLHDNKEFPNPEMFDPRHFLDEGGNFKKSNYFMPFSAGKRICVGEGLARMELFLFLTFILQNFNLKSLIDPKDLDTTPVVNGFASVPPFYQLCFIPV
# Cytochrome P450 2D6, sequence (P10635 whole entry): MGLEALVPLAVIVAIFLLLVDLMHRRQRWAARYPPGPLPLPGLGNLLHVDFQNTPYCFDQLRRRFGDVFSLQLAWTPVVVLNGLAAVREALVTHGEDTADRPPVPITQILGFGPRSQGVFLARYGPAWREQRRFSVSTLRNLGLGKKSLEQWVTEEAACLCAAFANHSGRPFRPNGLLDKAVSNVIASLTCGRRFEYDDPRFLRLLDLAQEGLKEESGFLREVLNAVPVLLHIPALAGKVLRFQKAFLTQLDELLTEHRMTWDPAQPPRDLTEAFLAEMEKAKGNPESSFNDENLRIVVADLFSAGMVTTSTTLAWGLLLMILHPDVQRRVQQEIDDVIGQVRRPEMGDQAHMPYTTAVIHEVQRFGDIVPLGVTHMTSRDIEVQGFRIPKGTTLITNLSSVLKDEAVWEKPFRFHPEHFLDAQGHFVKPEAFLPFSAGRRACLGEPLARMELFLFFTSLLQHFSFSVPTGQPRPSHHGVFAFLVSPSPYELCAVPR
compound,measurement,setting,value
COc1ccc(/C=C/c2nc3ccccc3n2Cc2ccc(OC)c(OC)c2)cc1,IC50,[1],> 80 µM (inactive)
same,AC50,HeLa,37 µM (active)
c1cc(CNc2ccc3c(c2)OCO3)ccn1,IC50,Protein skinhead-1,> 100 µM (inactive)
same,IC50,[2],> 66 µM (inactive)
same,IC50,[3],23.5 µM (inactive)
same,IC50,[1],> 80 µM (inactive)
same,IC50,[4],63.8 µM (active)
CCCCCn1cc[n+](C2=C([N-]S(=O)(=O)c3ccc(Cl)cc3)C(=O)c3ccccc3C2=O)c1,AC50,INS1,3.09 µM (active)
same,IC50,[5],30.2 µM (active)
CCCOC(=O)c1cccc(NC(=O)c2cccnc2)c1,AC50,[6],6.09 µM (active)
Cc1cc(C)n2nc(C(=O)Nc3cccc(S(=O)(=O)N(C)c4ccccc4)c3)nc2n1,EC50,[7],0.0342 µM (active)
CN[C@H]1CCc2cc(OC)c(OC)c(OC)c2-c2ccc(N(C)CC(OC)OC)c(=O)cc21,EC50,BJ [8],3.42 µM (active)
same,EC50,BJ [9],0.578 µM (inconclusive)
same,AC50,[10],1.86 µM (active)
same,EC50,BJ [11],21.4 µM (active)
same,EC50,[12],2.86 µM (active)
same,EC50,BJ [13],2.98 µM (inconclusive)
CCc1ccccc1N(C)S(=O)(=O)c1ccc2ncc(C(=O)O)c(O)c2c1,EC50,[7],7.23 µM (active)
O=C(O)C1CCCCC1C(=O)Nc1ccccc1Cl (stereo not given),Ki,fMet-Leu-Phe receptor,> 66.7 µM (inactive)
same,AC50,Cytochrome P450 2D6,inconclusive
same,AC50,Cytochrome P450 2C19,2.24 µM (inconclusive)
Cc1ccc(O)c(NC(=O)c2cccc(NC(=O)c3ccco3)c2)c1,EC50,[7],0.132 µM (active)
COc1ccc(C(=O)C2CCCN(C(=O)c3ccc(C(C)=O)s3)C2)c(C)c1 (stereo not given),AC50,[6],1.7 µM (active)
Cc1[nH]nc2ccc(-c3cncc(OCC(N)Cc4ccccc4)c3)cc12 (stereo not given),Ki,[14],> 1.58 µM (inactive)
same,Ki,[15],> 1.58 µM (inactive)
